Reference: patent US10407735B2, “Schlap-1 ncRNA and uses thereof” (THE REGENTS OF THE UNIVERSITY OF MICHIGAN, priority 2010, dated 2019)

Key:
[1] = test system: RWPE benign prostate cells
[2] = test system: Du145 prostate cancer cells
[3] = test system: PCAT-14 expression in VCaP and LNCaP cells; test: Androgen treatment (R1881), ncRNA expression by qPCR; type: cell-based, human; conditions: 5 nM R1881, androgen responsive VCaP and LNCaP cells
From the text: The benign immortalized prostate cell line RWPE as well as PC3, Du145, LNCaP, VCaP, 22Rv1, CWR22, C4-2B, NCI-660, MDA PCa 2b, WPMY-1, and LAPC-4 prostate cell lines were obtained from the American Type Culture Collection (Manassas, Va.). Benign non-immortalized prostate epithelial cells (PrEC) and prostate smooth muscle cells (PrSMC) were obtained from Lonza (Basel, Switzerland). Cell lines were maintained using standard media and conditions. For androgen treatment experiments, LNCaP and VCaP cells were grown in androgen depleted media lacking phenol red and supplemented with 10% charcoal-stripped serum and 1% penicillin-streptomycin. After 48 hours, cells were treated with 5 nM methyltrienolone (R1881, NEN Life Science Products) or an equivalent volume of ethanol. Cells were harvested for RNA at 6, 24, and 48 hours post-treatment. Prostate tissues were obtained from the radical prostatectomy series and Rapid Autopsy Program at the University of Michigan tissue core. These programs are part of the University of Michigan Prostate Cancer Specialized Program Of Research Excellence (S.P.O.R.E.). […]
Quantitative Real-time PCR (qPCR) was performed using Power SYBR Green Mastermix (Applied Biosystems, Foster City, Calif.) on an Applied Biosystems 7900HT Real-Time PCR System. […] Fold changes were calculated relative to GAPDH and normalized to the median value of the benign samples.

Row | SMILES | sensitivity to PARP1 inhibitor (MCF7 breast cancer cells) | sensitivity to PARP1 inhibitor (LNCAP prostate cells) | sensitivity to PARP1 inhibitor [1] | sensitivity to PARP1 inhibitor [2] | PCAT-14 expression [3]
1 | C[C@]1(c2nc3c(C(N)=O)cccc3[nH]2)CCCN1 [ABT-888] | does not recapitulate this effect | reduces sensitivity | increases sensitivity | increases sensitivity | 
2 | C[C@]1(O)CC[C@H]2[C@@H]3CCC4=CC(=O)CCC4=C3C=C[C@@]21C [R1881, methyltrienolone] |  |  |  |  | induced
